Measurements: patent publication US6995022B1, “Screening of xenobiotics and endogenous compounds for metabolic transformation, formation of toxic metabolites, and bioavailability” (Board of Trustees of the University of Illinois, priority 1998, dated 2006)

Columns and labels:
[1] = tested on: rat liver microsomes containing cytochromes P450 and microsomal glutathione S-transferase
Description: Alternatively, reactive metabolites may be trapped as phase II conjugates such as glutathione adducts.
Glutathione adducts formed from reactive drugs or their activated metabolites in the ultrafiltrate may be trapped and concentrated on a trapping column and then analyzed using LC-MS or LC-MS-MS for identification of the metabolites and for the differentiation of isomeric products.

[2] = tested on: rat liver microsomal cytochromes P450; conditions: for extent of metabolism by cytochromes P450 indicated by high throughput assays: microsomes
Method: Chlorpromazine is an antidepressant-drug that undergoes extensive hepatic metabolism. […] The area under the curve for unreacted chlorpromazine is proportional to the amount of chlorpromazine consumed during the on-line metabolism experiment.
Pentoxyresorufin (1 μg) was injected into the ultrafiltration chamber containing hepatic microsomes as described herein.
Microsomes may be prepared from any types of cells or tissues, which are obtained from any species including humans. For the examples cited, male or female Sprague-Dawley rats (180-200 g) were obtained from Sasco Inc. (Omaha, Nebr.). Microsomes were prepared from rat liver, and protein and cytochrome P450 concentrations were determined using standard procedures (1). […] This washing step may be accelerated by using a higher flow rate, but care should be taken to avoid excessive pressure and rupture of the ultrafiltration membrane.
The ultrafiltration chamber (FIG. 1B) was built in-house out of polyetheretherketone (PEEK) and contained a Teflon®-coated magnetic stirring bar and a Viton® O-ring, which formed a seal around the ultrafiltration membrane. […] Chromatography tubing and fittings were made from polyetheretherketone (PEEK, Upchurch Scientific, Oak Harbor, Wash.).
NADPH and drug substrates were purchased from Sigma Chemical Company (St. Louis, Mo. All solvents were HPLC grade. Into a mobile phase consisting of 50 mM anmmonium acetate, pH 7.4, and 0.1 mM NADPH at a flow rate of 70 μL/min, chlorpromazine (3 μg) in 50 μL buffer was injected into the ultrafiltration chamber. Protonated molecules of chlorpromazine, cofactor NADPH, and the microsomal metabolic products were recorded continuously using positive ion electrospray mass spectrometry. In another experiment, 1 μg of pentoxyresorufin was injected into the ultrafiltration chamber containing hepatic microsomes as described above. […] In some experiments, NADPH was injected simultaneously with substrate instead of being added to the mobile phase.
Typically, a wide mass range was scanned by the mass spectrometer in order to identify the major metabolites (if unknown). Once the major metabolites are known or if only the compounds injected into the first chamber need to be analyzed, selected ion monitoring mass spectrometry is used to follow the appearance of metabolites, monitor the consumption of NADPH, and/or monitor the profile of unreacted compound(s).
The transfer line between the ultrafiltration chamber and the mass spectrometer was flushed for 1 min, then mass spectra were recorded for 2 min.

[3] = tested on: Caco-2 cells; assay type: in vitro ADME; conditions: human, Caco-2, 118 µM
Method: Bioavailability assays are generally carried out in one of two ways. In one type of assay, the chamber is loaded with cells (i.e., Caco-2 human intestinal epithelial cells) such that the volume of the cells is significant compared to the volume of the chamber (e.g., 1 million cells/mL), and a size exclusion experiment is carried out. (Hidalgo, et al. 1989). An aliquot of a drug mixture is injected through the chamber and the elution profile is recorded by the mass spectrometer detector. The mixture may contain a single drug or a mixture of drugs under investigation and two internal controls: The negative control compound (such as mannitol) is excluded from entering the cells; and the positive control compound (such as certain steroids) readily enters the cells. Compounds that are excluded from the cells are washed out of the ultrafiltration chamber faster and are detected first, while compounds that enter the cells are distributed into a larger volume within the chamber and require longer to elute. In this manner, quantitative bioavailability or absorption data may be determined. In another type of bioavailability assay, a monolayer of cells (i.e., Caco-2 cells) is grown on an ultrafiltration membrane, which is then mounted in the ultrafiltration chamber with the cells facing the interior of the chamber. […] Compounds that readily enter and pass through the cells are detected first. […]

[4] = tested on: cytochrome P450 isozymes; conditions: cited from earlier work

| Compound | metabolites detected in high throughput metabolic screening [2] | extent of metabolism by cytochromes P450 indicated by high throughput assays [2] | metabolism according to the literature [4] | effect on cytochrome P450 isozymes according to the literature [4] | also measured |
| --- | --- | --- | --- | --- | --- |
| Cc1c[nH]c2ccccc12 [3-methylindole] |  |  |  |  | glutathione adducts detected [1]: observed |
| CCCCCOc1ccc2nc3ccc(=O)cc-3oc2c1 [Pentoxyresorufin] |  |  |  |  | metabolism in control without NADPH [2]: no metabolism occurred |
| CC(=O)Oc1ccccc1C(=O)O [aspirin] |  |  |  |  | relative elution rates aspirin/propranolol (ratio of slopes of ln [drug] vs. elution time) [3]: 1.6:1 |
| CN(C)CCCN1c2ccccc2Sc2ccc(Cl)cc21 [chlorpromazine] | observed | extensive metabolism | metabolized extensively |  |  |
| O=C1C[C@@H](c2ccc(O)cc2)Oc2cc(O)cc(O)c21 [naringenin] | no metabolites | not | not metabolized | inhibit the action of certain cytochrome P450 isozymes |  |
| C=C[C@H]1C[N@@]2CC[C@H]1C[C@@H]2[C@@H](O)c1ccnc2ccc(OC)cc12 [quinidine] | no metabolites | not | not metabolized | inhibit the action of certain cytochrome P450 isozymes |  |
